How the values were obtained:
canonical Wnt signaling = settings: Bafico et al.; Dkk-1 added at 30 pM; cited from earlier work
endogenous LRP5/6 = experiment: Cell-based TCF reporter high-throughput assay, endogenous LRP5/6; parameters: species or system human; settings: U2OS cells, no Wnt3a/Wnt1 transfection, FIG. 21
From the text: To develop a high throughput assay, the TCF-luciferase assay described in Example 7 was modified utilizing low level expression of endogenous LRP5/6 in U2OS and HEK293 cells. […] Using U2OS (human osteosarcoma) and HEK293 (ATCC) cells, the TCF-luciferase and tk-Renilla reporter element constructs were co-transfected along with Wnt3a/1 and Dkk.

[1] = system: Zmax/LRP5-mediated Wnt signaling; experiment: Xenopus embryo assay, hDkk-1 modulation of Zmax/LRP5+Wnt5a signaling; assay type: in vivo; settings: hDkk-1 250 pg, FIG. 11
Experimental: mRNA for microinjection into Xenopus embryos is generated by in vitro transcription using the CDNA constructs in the pCS2^+ vector described above as template. RNA is synthesized using the Ambion mMessage mMachine high yield capped RNA transcription kit (Cat. #1340) following the manufacturer's specifications for the Sp6 polymerase reactions. RNA products were brought up to a final volume of 50 μl in sterile, glass-distilled water and purified over Quick Spin-Columns for Radiolabelled RNA Purification G50-Sephadex (Roche, Cat. #1274015) following the manufacturer's specifications. The resulting eluate was finally extracted with phenol:chloroform:isoamyl alcohol and isopropanol precipitated using standard protocols (Sambrook et al., 1989). Final RNA volumes were approximately 50 μl. RNA concentration was determined by absorbance values at 260 nm and 280 nm. RNA integrity was visualized by ethidium bromide staining of denaturing (formaldehyde) agarose gel electrophoresis (Sambrook et al., 1989). Various amounts of RNA (2 pg to 1 ng) are injected into the ventral blastomere of the 4- or 8-cell Xenopus embryo. These protocols are described in Moon et al., Technique-J. of Methods in Cell and Mol. Biol. 1: 76-89 (1989), and Peng, Meth. Cell. Biol. 36: 657-62 (1991). […]

LRP5 LBD = experiment: Yeast-2 hybrid interaction trap LRP5 LBD-LexA / Gal4AD-Dkk; assay type: binding; settings: LRP5LBD-LexA bait and Gal4AD-Dkk prey
Sequence of LRP5 LBD (as listed by the source): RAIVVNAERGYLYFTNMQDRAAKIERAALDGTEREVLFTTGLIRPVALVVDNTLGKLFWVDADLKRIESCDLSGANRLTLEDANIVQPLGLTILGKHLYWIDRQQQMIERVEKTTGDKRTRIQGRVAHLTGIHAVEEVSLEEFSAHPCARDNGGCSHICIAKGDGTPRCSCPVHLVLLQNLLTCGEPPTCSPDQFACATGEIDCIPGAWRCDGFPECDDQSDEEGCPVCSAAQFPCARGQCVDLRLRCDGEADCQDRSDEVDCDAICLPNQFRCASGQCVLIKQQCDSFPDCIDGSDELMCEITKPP
From the text: Small molecule inhibitors (or partial inhibitors) of the Dkk-LRP interaction may be an excellent osteogenic therapeutic. One way to investigate this important protein-protein interaction is using Y2H techniques substantially as described above and as is well known in the art. […] This interaction is quantitated using a reporter element known in the art, e.g., LacZ or luciferase, which is only activated when bait and prey interact. The Y2H assay is used to screen for compounds which modulate the LRP-Dkk interaction. Such a modulation would be visualized by a reduction in reporter element activation signifying a weaker or disrupted interaction, or by an enhancement of the reporter element activation signifying a stronger interaction. Thus, the Y2H assay can be used as a high-throughput screening technique to identify compounds which disrupt or enhance Dkk interaction with LRP5/LRP6/HBM, which may serve as potential therapeutics.
For example, the Interaction Trap methodology can be used as follows. […] With the LRP5LBD-LexA bait and the Gal4AD-Dkk prey, over a 20-fold activation of a lacZ reporter (under the control of a single LexA operator) was detected over the background. […] As a result, small molecules may be identified that modulate this interaction between LRP and Dkk.

LRP5 = molecular target: T1, LRP5 (Homo sapiens, UniProt O75197); experiment: Cell-based TCF reporter high-throughput assay, LRP5 cDNA; settings: U2OS cells, Wnt1 or Wnt3a/Wnt1 co-transfected, FIG. 20
T1 construct: Site-directed mutants of LRP5 were generated in the full-length human LRP5 cDNA; expressed in transfected cells; host or cells: HOB-03-CE6 osteoblastic cells; U2OS osteosarcoma cells; HEK293
T1 sequence (O75197 32-1615): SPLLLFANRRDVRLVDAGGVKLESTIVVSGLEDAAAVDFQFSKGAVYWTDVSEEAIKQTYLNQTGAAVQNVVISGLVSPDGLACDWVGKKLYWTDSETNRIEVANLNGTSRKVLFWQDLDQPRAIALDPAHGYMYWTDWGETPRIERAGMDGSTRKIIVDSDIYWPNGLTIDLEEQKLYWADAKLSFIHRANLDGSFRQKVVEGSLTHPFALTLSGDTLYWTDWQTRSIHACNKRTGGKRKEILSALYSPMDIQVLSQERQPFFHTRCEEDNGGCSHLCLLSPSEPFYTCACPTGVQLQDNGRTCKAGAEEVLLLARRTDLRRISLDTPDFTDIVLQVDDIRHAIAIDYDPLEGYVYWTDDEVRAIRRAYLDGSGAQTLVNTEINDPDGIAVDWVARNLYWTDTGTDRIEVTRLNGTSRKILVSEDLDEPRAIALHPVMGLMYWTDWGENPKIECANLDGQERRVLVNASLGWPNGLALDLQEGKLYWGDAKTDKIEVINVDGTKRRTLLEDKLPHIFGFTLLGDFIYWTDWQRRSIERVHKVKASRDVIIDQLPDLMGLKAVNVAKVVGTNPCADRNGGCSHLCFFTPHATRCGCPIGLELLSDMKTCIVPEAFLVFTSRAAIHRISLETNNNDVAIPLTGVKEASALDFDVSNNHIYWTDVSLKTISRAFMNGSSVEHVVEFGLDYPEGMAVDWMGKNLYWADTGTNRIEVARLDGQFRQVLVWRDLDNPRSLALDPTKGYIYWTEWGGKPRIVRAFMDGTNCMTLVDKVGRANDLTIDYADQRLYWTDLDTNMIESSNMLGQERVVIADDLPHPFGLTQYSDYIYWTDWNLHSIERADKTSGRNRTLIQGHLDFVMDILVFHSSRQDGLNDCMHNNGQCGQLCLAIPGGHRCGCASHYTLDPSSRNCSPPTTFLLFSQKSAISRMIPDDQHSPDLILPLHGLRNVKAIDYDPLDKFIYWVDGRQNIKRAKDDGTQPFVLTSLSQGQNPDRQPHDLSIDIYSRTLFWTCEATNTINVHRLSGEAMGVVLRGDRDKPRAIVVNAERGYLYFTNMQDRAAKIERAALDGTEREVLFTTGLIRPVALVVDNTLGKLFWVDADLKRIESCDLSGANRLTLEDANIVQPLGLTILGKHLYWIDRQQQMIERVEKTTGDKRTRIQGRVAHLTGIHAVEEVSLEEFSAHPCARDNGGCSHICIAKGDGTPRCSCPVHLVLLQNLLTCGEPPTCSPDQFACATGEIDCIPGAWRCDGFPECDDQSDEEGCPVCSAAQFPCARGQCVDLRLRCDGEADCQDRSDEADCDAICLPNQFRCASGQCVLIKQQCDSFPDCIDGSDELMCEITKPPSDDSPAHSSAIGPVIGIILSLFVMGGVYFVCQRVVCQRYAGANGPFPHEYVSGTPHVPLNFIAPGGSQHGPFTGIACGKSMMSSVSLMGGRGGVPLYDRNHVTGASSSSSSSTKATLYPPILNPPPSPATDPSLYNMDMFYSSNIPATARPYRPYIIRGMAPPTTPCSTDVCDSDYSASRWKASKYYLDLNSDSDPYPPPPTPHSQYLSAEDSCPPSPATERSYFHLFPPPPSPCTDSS
From the text: To develop a high throughput assay, the TCF-luciferase assay described in Example 7 was modified utilizing low level expression of endogenous LRP5/6 in U2OS and HEK293 cells. However, HOB-03-CE6 cells and any other cells which show a differential response to Dkk depending on whether LRP5, LRP6 or HBM are expressed. Using U2OS (human osteosarcoma) and HEK293 (ATCC) cells, the TCF-luciferase and tk-Renilla reporter element constructs were co-transfected along with Wnt3a/1 and Dkk. Wnt3a alone, by using endogenous LRP5/6, was able to stimulate TCF reporter gene activation. When Dkk, is co-transfected with Wnt3a/Wnt 1 and reporters (TCF-luci and tk-Renilla), DEkk represses reporter element activity. In addition, the TCF-luci signal is activated by Wnt3a/Wnt1 can be repressed by the addition of Dkk-enriched conditioned media to the cells containing Wnt3a/Wnt1 and reporters.
The Dkk-mediated repression of the reporter is dependent upon the concentration of transfected Dkk cDNA or on the amount of Dkk-conditioned media added. In addition, the Dkk-mediated reporter suppression can be altered by the co-transfection of LRP5, LRP6, and HBM cDNAs in the U2OS or HEK293 cells. In general, U2OS cells show greater sensitivity to Dkk-mediated reporter suppression than that in HEK-293 cells. […]

Dkk-mediated repression of LRP5 signaling (TCF reporter) (LRP5): represses
Dkk-mediated repression of LRP5 signaling (TCF reporter) (LRP5; listed as Dkk1): moderate
Substance: Dkk-1: Dickkopf-1 protein, antagonist of the Wnt pathway; expressed from human cDNA (RNA or plasmid)
functional consequence of Dkk-1/LRP6 interaction on canonical Wnt signaling (canonical Wnt signaling): repression of the canonical Wnt signaling
modulation of TCF signal without Wnt DNA transfection (endogenous LRP5/6): can be modulated
modulation of TCF signal without Wnt DNA transfection (endogenous LRP5/6; listed as Dkk1): can repress TCF-luci
repression of Zmax/LRP5-mediated Wnt signaling [1]: repressed
activation of lacZ reporter over the background (LRP5 LBD): > 20 fold

Reference: US7700101B2, “Reagents and method for modulating Dkk-mediated interactions” (Wyeth, priority 2001, dated 2010)
